# Patent US20250163522A1, “METHODS FOR PRESERVING HEALTHY INTESTINAL MICROBIOME DURING GROWTH PROMOTER ADMINSTRATION” (BIOMEDIT, LLC, priority 2022, published 2025)
# Read-outs that look alike come from different tables or passages of the source.
# Format: in vivo, chickens (Gallus gallus)
# Protocol: 15 cecal samples and 10 serum samples from day 35 birds were sent to metabolon (Morrisville, NC) for untargeted metabolomics analysis. These numbers of samples were sent for both the control and narasin treatments. Serum samples were selected sequentially, that is, without knowledge of bird performance or results from other analyses.
# Samples were prepared using the automated MicroLab STAR® system from Hamilton Company. Samples were extracted with methanol under vigorous shaking for 2 min (Glen Mills GenoGrinder 2000) to precipitate protein and dissociate small molecules bound to protein or trapped in the precipitated protein matrix, followed by centrifugation to recover chemically diverse metabolites. The resulting extract was divided into four fractions: two for analysis by two separate reverse phase (RP)/Ultrahigh Performance Liquid Chromatography-Tandem Mass Spectroscopy (UPLC-MS/MS) methods using positive ion mode electrospray ionization (ESI), one for analysis by RP/UPLC-MS/MS using negative ion mode ESI, and one for analysis by HILIC/UPLC-MS/MS using negative ion mode ESI. Samples were placed briefly on a TurboVap® (Zymark) to remove the organic solvent. The sample extracts were stored overnight under nitrogen before preparation for analysis.
# The sample extract was dried and reconstituted in solvents compatible to each of the four methods. One aliquot was analyzed using acidic positive ion conditions, chromatographically optimized for more hydrophilic compounds. In this method, the extract is gradient-eluted from a C18 column (Waters UPLC BEH C18-2.1×100 mm, 1.7 μm) using water and methanol, containing 0.05% perfluoropentanoic acid (PFPA) and 0.1% formic acid (FA). A second aliquot was also analyzed using acidic positive ion conditions but was chromatographically optimized for more hydrophobic compounds. In this method, the extract is gradient eluted from the C18 column using methanol, acetonitrile, water, 0.05% PFPA and 0.01% FA, and is operated at an overall higher organic content. A third aliquot was analyzed using basic negative ion optimized conditions using a separate dedicated C18 column. The basic extracts were gradient-eluted from the column using methanol and water, and with 6.5 mM Ammonium Bicarbonate at pH 8. The fourth aliquot was analyzed via negative ionization following elution from a HILIC column (Waters UPLC BEH Amide 2.1×150 mm, 1.7 μm) using a gradient consisting of water and acetonitrile with 10 mM Ammonium Formate, pH 10.8. The MS analysis alternates between MS and data-dependent MS^n scans using dynamic exclusion. The scan range varies slightly between methods, but covers approximately 70-1000 m/z.
# UPLC-MS/MS was done using a Waters ACQUITY ultra-performance liquid chromatography (UPLC) and a Thermo Scientific Q-Exactive high resolution/accurate mass spectrometer interfaced with a heated electrospray ionization (HESI-II) source and Orbitrap mass analyzer operated at 35,000 mass resolution.
# Raw data was extracted, peak-identified, and QC processed using Metabolon's hardware and software. Compounds were identified by comparison to library entries of purified standards. The library, based on authenticated standards, contains the retention time/index (RI), mass to charge ratio (m/z), and chromatographic data (including MS/MS spectral data) on all molecules present in the library. Biochemical identifications were based on three criteria: retention index within a narrow RI window of the proposed identification, accurate mass match to the library+/−10 ppm, and the MS/MS forward and reverse scores. MS/MS scores are based on a comparison of the ions present in the experimental spectrum to ions present in the library entry spectrum.
# Peaks were quantified as area-under-the-curve (AUC) detector ion counts. For each identified metabolite, AUC values were rescaled by dividing by the median AUC value across all samples. […]
# [1] = cecum, day 35, corrected p-value<0.05
smiles,measurement,setting,value
CC[C@@H](C(=O)O)[C@@H]1O[C@@H]([C@@H](C)[C@H](O)[C@H](C)C(=O)[C@H](CC)[C@H]2O[C@]3(C=C[C@@H](O)[C@]4(CC[C@@](C)([C@H]5CC[C@](O)(CC)[C@H](C)O5)O4)O3)[C@H](C)C[C@@H]2C)[C@@H](C)C[C@@H]1C [narasin],spermidine concentration,"cecum and serum, day 35",lower concentration
same,amino acid concentrations compared to controls,"cecum, day 35",all 20 amino acids were found at lower concentrations
same,riboflavin concentration,"cecum, day 35",higher concentration
same,number of metabolites at higher abundance compared to controls,[1],49
same,number of metabolites at lower abundance compared to controls,[1],78
same,number of metabolites at higher abundance compared to controls,"serum, day 35",4
same,number of metabolites at lower abundance compared to controls,"serum, day 35",93
same,urea level compared to controls,"serum, day 35",lower levels
